Earlier results on one molecule are cited in patent EP0523846A2, “1,4-Benzodiazepines with 5-membered heterocyclic rings” (MERCK & CO. INC., priority 1991, dated 1993).

The conditions of the series: background statement citing Deschodt-Lanckman et al., Reg. Pept., 2, 15 (1981).

As for `CSCC[C@H](NC(=O)[C@H](Cc1ccc(OS(=O)(=O)O)cc1)NC(=O)[C@@H](N)CC(=O)O)C(=O)NCC(=O)N[C@@H](Cc1c[nH]c2ccccc12)C(=O)N[C@@H](CCSC)C(=O)N[C@@H](CC(=O)O)C(=O)N[C@@H](Cc1ccccc1)C(N)=O` [CCK-8s, H-Asp-Tyr(SO₃H)-Met-Gly-Trp-Met-Asp-Phe-NH₂], the half-life result is “less than 1 hour”.
